Experimental data reported in patent publication US20040229954A1, “Selective manipulation of triglyceride, HDL and LDL parameters with 6-(5-carboxy-5-methyl-hexyloxy)-2,2-dimethylhexanoic acid monocalcium salt” (priority 2003, published 2004).
Marks after values point to notes of the source that are not given here.

Experiment: Randomized, double-blind, placebo-controlled dose-response study of gemcabene in patients with HDL-C <35 mg/dL; percent change from baseline in serum lipids and apolipoproteins
Format: in vivo, human
Protocol: A randomized, double-blind, placebo-controlled, parallel group, dose-response, multicenter study was conducted. The study was conducted at 11 centers in the United States and one center in Canada. Institutional Review Board approval was obtained at each center and every patient was informed of the study, freely consented to participate and signed an informed consent document. Following a 6-week, single-blind placebo, dietary lead in period conducted according to National Cholesterol Education Program Step 1 Diet, eligible patients with HDL-C level <35 mg/dL (0.9 mmol/L) were stratified according to whether mean serum TG levels, calculated from measures at 2 and 4 weeks prior to randomization, were <200 mg/dL (2.3 mmol/L) or >200 mg/dL (2.3 mmol/L). Within each TG stratum, patients were randomized to receive either 150, 300, 600, or 900 mg of gemcabene or placebo daily once daily for 12 weeks.
Eligible patients were women of non-childbearing potential (naturally postmenopausal or surgically sterilized) or men 18 to 80 years of age with a baseline serum HDL-C levels <35 mg/dL. Patients were excluded if they had creatine kinase serum levels >3 times the upper limit of normal, a body mass index >35 kilogram/meter^2, uncontrolled hypertension defined as sitting diastolic blood pressure >95 mm Hg whether taking or not taking an acceptable antihypertensive medication, uncontrolled diabetes mellitus (Hemoglobin A1C>10%), hepatic dysfunction including asparate aminotransferase or alanine aminotransferase levels >2 times the upper limits of normal, renal dysfunction as defined by blood urea nitrogen or creatinine levels >2 times upper limits of normal or uncontrolled hypothyroidism (thyroid stimulating hormone >1.5 times the upper limits of normal). Also excluded were those with a prior history of known gall bladder disease or pancreatitis, a history of consuming >14 alcoholic drinks per week, or those with a known hypersensitivity to lipid-altering drugs. Patients who had myocardial infarction, severe or unstable angina pectoris, coronary artery bypass graft or any other cardiovascular event requiring hospitalization within the last 3 months were also excluded from the study. Patients were not permitted any other lipid-altering drugs during the course of the study and if on prestudy lipid-altering drug therapy, were required to undergo an additional 4-week washout period. Use of isotretinoin, insulin, warfarin, immunosuppressive agents and intermittent systemic steroids were also prohibited. Alpha-blockers, β-blockers, hormone replacement therapy and oral hypoglycemic agents were permitted provided that their use was stable for at least 3 months.
The primary efficacy parameter was percent change from baseline in serum HDL-C levels at the study subject's last visit. Other efficacy parameters included percent change from baseline in serum LDL-C, TG, apolipoproteins A-I, A-II, B, C-III, E, and non-HDL-C levels. Additionally, nuclear magnetic resonance (NMR) spectroscopy was used to assess VLDL, HDL and LDL particle sizes as well as the total concentration of LDL particles. For HDL-C, non-HDL-C, LDL-C, and TG levels, the baseline value was the mean plasma value of two measurements, one obtained 2 weeks prior to randomization and one obtained at randomization. For all other parameters, the baseline value was defined as the single measurement obtained at randomization.
All blood samples were collected following a 12-hour fast and analyzed by Medical Research Laboratories in Highland Heights, Ky. Blood samples for routine chemistry and hematology profiles were measured at screening, randomization and 4, 8, and 12 weeks following the start of study medication. Basic lipid profiles (HDL-C, LDL-C, and TG) were measured at screening, 2 and 4 weeks prior to starting study medication (during the baseline phase), at randomization, and at weeks 2, 4, 8 and 12 of the treatment phase. […]

[1] = patients with TG <200 mg/dL, 150 mg once daily for 12 weeks, mean ± SE
[2] = patients with TG <200 mg/dL, 150 mg once daily for 12 weeks, median (min, max)
[3] = patients with TG <200 mg/dL, 300 mg once daily for 12 weeks, mean ± SE
[4] = patients with TG <200 mg/dL, 300 mg once daily for 12 weeks, median (min, max)
[5] = patients with TG <200 mg/dL, 600 mg once daily for 12 weeks, mean ± SE
[6] = patients with TG <200 mg/dL, 600 mg once daily for 12 weeks, median (min, max)
[7] = patients with TG <200 mg/dL, 900 mg once daily for 12 weeks, mean ± SE
[8] = patients with TG <200 mg/dL, 900 mg once daily for 12 weeks, median (min, max)
[9] = patients with TG ≧200 mg/dL, 150 mg once daily for 12 weeks, mean ± SE
[10] = patients with TG ≧200 mg/dL, 150 mg once daily for 12 weeks, median (min, max)
[11] = patients with TG ≧200 mg/dL, 300 mg once daily for 12 weeks, mean ± SE
[12] = patients with TG ≧200 mg/dL, 300 mg once daily for 12 weeks, median (min, max)
[13] = patients with TG ≧200 mg/dL, 600 mg once daily for 12 weeks, mean ± SE
[14] = patients with TG ≧200 mg/dL, 600 mg once daily for 12 weeks, median (min, max)
[15] = patients with TG ≧200 mg/dL, 900 mg once daily for 12 weeks, mean ± SE
[16] = patients with TG ≧200 mg/dL, 900 mg once daily for 12 weeks, median (min, max)
[17] = patients with mean baseline TG≧2200 mg/dL (so in the source), 150 mg dose

## CC(C)(CCCCOCCCCC(C)(C)C(=O)[O-])C(=O)[O-].[Ca+2] [gemcabene, 6-(5-carboxy-5-methyl-hexyloxy)-2,2-dimethylhexanoic acid monocalcium salt]
Both TG strata, 600 and 900 mg doses
  levels of apolipoprotein B: corresponding decreases
Both TG strata, higher doses
  reduction of non-HDL-C levels: up to 18%
[1]
  Percent Change from Baseline at Last Visit, Apolipoprotein A-II: 5.5 ± 2.6 %
  Percent Change from Baseline at Last Visit, Apolipoprotein CIII: −7.0 ± 9.2%
  Percent Change from Baseline at Last Visit, HDL-C: 6.2 ± 3.1%
  Percent Change from Baseline at Last Visit, LDL-C: −2.6 ± 4.4%
  Percent Change from Baseline at Last Visit, NonHDL-C: −2.5 ± 4.0%
[2]
  Percent Change from Baseline at Last Visit, Apolipoprotein A-I: 7.3 (−7, 40) %
  Percent Change from Baseline at Last Visit, Apolipoprotein B: −0.7 (−17, 13) %
  Percent Change from Baseline at Last Visit, Apolipoprotein E: −7.7 (−42, 15) %
  Percent Change from Baseline at Last Visit, TG: −0.4 (−33, 32) %
[3]
  Percent Change from Baseline at Last Visit, Apolipoprotein A-II: 3.3 ± 2.8%
  Percent Change from Baseline at Last Visit, Apolipoprotein CIII: −14.3 ± 10.5%
  Percent Change from Baseline at Last Visit, HDL-C: 5.3 ± 3.5%
  Percent Change from Baseline at Last Visit, LDL-C: −5.6 ± 5.2%
  Percent Change from Baseline at Last Visit, NonHDL-C: −11.6 ± 4.2 %
[4]
  Percent Change from Baseline at Last Visit, Apolipoprotein A-I: 1.3 (−11, 31) %
  Percent Change from Baseline at Last Visit, Apolipoprotein B: −11.7 (−33, 2) %
  Percent Change from Baseline at Last Visit, TG: −14.6 (−55, 18) %
[5]
  Percent Change from Baseline at Last Visit, Apolipoprotein A-II: 7.2 ± 2.6 %
  Percent Change from Baseline at Last Visit, Apolipoprotein CIII: 5.4 ± 9.0%
  Percent Change from Baseline at Last Visit, HDL-C: 0.5 ± 3.2%
  Percent Change from Baseline at Last Visit, LDL-C: −24.9 ± 4.6 %
  Percent Change from Baseline at Last Visit, NonHDL-C: −17.6 ± 3.8 %
[6]
  Percent Change from Baseline at Last Visit, Apolipoprotein A-I: 7.1 (−7, 89) %
  Percent Change from Baseline at Last Visit, TG: 6.4 (−45, 97) %
[7]
  Percent Change from Baseline at Last Visit, Apolipoprotein A-II: 6.5 ± 2.5 %
  Percent Change from Baseline at Last Visit, Apolipoprotein CIII: −9.5 ± 8.6%
  Percent Change from Baseline at Last Visit, HDL-C: 5.0 ± 3.2%
  Percent Change from Baseline at Last Visit, LDL-C: −15.2 ± 4.4 %
  Percent Change from Baseline at Last Visit, NonHDL-C: −17.9 ± 3.6 %
[8]
  Percent Change from Baseline at Last Visit, Apolipoprotein A-I: 5.5 (−11, 34) %
  Percent Change from Baseline at Last Visit, Apolipoprotein B: −15.7 (−38, 21) %
  Percent Change from Baseline at Last Visit, TG: −8.1 (−35, 29) %
[9]
  Percent Change from Baseline at Last Visit, Apolipoprotein A-II: 5.9 ± 2.7 %
  Percent Change from Baseline at Last Visit, Apolipoprotein CIII: −23.6 ± 5.7 %
  Percent Change from Baseline at Last Visit, HDL-C: 17.6 ± 3.8 %
  Percent Change from Baseline at Last Visit, NonHDL-C: −1.6 ± 3.6%
[10]
  Percent Change from Baseline at Last Visit, Apolipoprotein B: 0.0 (−29, 33) %
  Percent Change from Baseline at Last Visit, Apolipoprotein E: −20.0 (−52, 19) %
  Percent Change from Baseline at Last Visit, LDL-C: 16.4 (−26,255) %
[11]
  Percent Change from Baseline at Last Visit, Apolipoprotein A-II: 0.5 ± 2.6%
  Percent Change from Baseline at Last Visit, Apolipoprotein CIII: −30.9 ± 5.6 %
  Percent Change from Baseline at Last Visit, HDL-C: 12.3 ± 3.8%
  Percent Change from Baseline at Last Visit, NonHDL-C: −9.4 ± 3.5%
[12]
  Percent Change from Baseline at Last Visit, Apolipoprotein B: −6.5 (−30, 31) %
  Percent Change from Baseline at Last Visit, Apolipoprotein E: −37.4** %
  Percent Change from Baseline at Last Visit, LDL-C: 8.3 (−31, 252) %
[13]
  Percent Change from Baseline at Last Visit, Apolipoprotein A-II: −0.8 ± 3.0%
  Percent Change from Baseline at Last Visit, Apolipoprotein CIII: −6.4 ± 6.5%
  Percent Change from Baseline at Last Visit, HDL-C: −0.9 ± 4.1%
  Percent Change from Baseline at Last Visit, NonHDL-C: −10.9 ± 4.2%
[14]
  Percent Change from Baseline at Last Visit, Apolipoprotein B: −5.7 (−34, 54) %
  Percent Change from Baseline at Last Visit, Apolipoprotein E: −25.4 (−49, 18) %
  Percent Change from Baseline at Last Visit, TG: −12.7 (−59, 38) %
[15]
  Percent Change from Baseline at Last Visit, Apolipoprotein A-II: −4.8 ± 2.6%
  Percent Change from Baseline at Last Visit, Apolipoprotein CIII: −10.8 ± 5.6%
  Percent Change from Baseline at Last Visit, HDL-C: −0.9 ± 3.8%
  Percent Change from Baseline at Last Visit, NonHDL-C: −16.3 ± 4.3 %
[16]
  Percent Change from Baseline at Last Visit, Apolipoprotein E: −11.7 (−59, 65) %
  Percent Change from Baseline at Last Visit, TG: −9.0 %
Patients with mean baseline TG <200 mg/dL, any dose
  serum HDL-C or TG levels versus placebo: no significant differences
[17]
  decrease in apolipoprotein C-III: 23%
  increase in level of apolipoprotein A-I: 6%
  increase in level of apolipoprotein A-II: 6%
  increase in serum HDL-C levels: 18%
  reduction of TG serum levels: 27%
Patients with mean baseline TG≧2200 mg/dL (so in the source), 300 mg dose
  reduction of TG serum levels: 39%
Patients with mean baseline TG≧2200 mg/dL (so in the source), doses of 600 or 900 mg
  serum HDL-C or TG levels versus placebo: No significant differences
